Test results as given in article PMC3130785, “Small Compound 6-O-Angeloylplenolin Induces Mitotic Arrest and Exhibits Therapeutic Potentials in Multiple Myeloma” (PLoS ONE, 2011).

Columns and labels:
[1] = system: human colorectum, liver, stomach, lung, and skin tumor cells; parameters: method as in PMID 20183316; details: preliminary data; cited from earlier work
[2] = system: pJak2 and pStat3; experiment: Western blotting, IL-6 stimulation; type: cell-based, human; details: MM.1S
Experimental: (§1) Cell pellets were lysed in RIPA buffer containing 50 mM Tris pH 8.0, 150 mM NaCl, 0.1% SDS, 0.5% deoxycholate, 1% NP-40, 1 mM DTT, 1 mM NaF, 1 mM sodium vanadate, and protease inhibitors cocktail (Sigma). For immunoprecipitations, cells were lysed on ice for 15 minutes in RIPA buffer. Lysates were centrifuged. The supernatant was incubated with indicated antibodies overnight, after which protein A/G Plus beads (Santa Cruz Biotechnology) were added and incubated for 3 h. The beads were washed 4 times in RIPA buffer. Then the beads were resuspended in 1× sample buffer and boiled for 3 min. Protein extracts were quantitated and loaded on 8% to 12% sodium dodecyl sulfate polyacrylamide gel, electrophoresed, and transferred to a nitrocellulose membrane (Whatman). The membrane was incubated with primary antibody, washed, and incubated with horseradish peroxidase (HRP)–conjugated secondary antibody (Pierce). Detection was performed by using a chemiluminescent western detection kit (Cell Signaling). […]
Figure 5 6-OAP overcomes the protective effects of IL-6, IGF-I and BMSCs on MM cells. […] Cell proliferation was assessed by MTT assay. […] Cell proliferation was assessed by MTT assay. *p<.01,** p<.05. […]

[3] = system: cyclin D1; experiment: Western blotting; type: cell-based, human; details: U266 and MM1.S cells; 12 to 48 h
Experimental: as §1
(§2) Figure 3 6-OAP accumulates cyclin B1 which is required for mitotic arrest. […] After co-incubation with 6-OAP for 18 h, the cells were then harvested and detected by Leica DMI 400B microscope (D), or analyzed by flow cytometry for the cell cycle distribution (E). To evaluate cell growth, the cells were treated with 6-OAP for indicated time points and analyzed by trypan blue exclusion assay (F). […] (H) U266 cells were treated without or with 7.5 µM 6-OAP for 24 h, and stained with anti-α-tubulin and anti-BubR1 antibodies to visualize microtubules (green), BubR1 (red), and DAPI to counter stained DNA (blue), and analyzed by confocal microscopy. […]

[4] = system: pCdc2 (Y15); experiment: Western blotting; type: cell-based, human; details: U266, MM.1S and CD138+ primary cells
Experimental: as §1, §2

[5] = system: cyclin B1; experiment: Western blotting; type: cell-based, human; details: U266, MM.1S and CD138+ primary cells
Experimental: as §1, §2

## CC=C(C)C(=O)OC1C2C(CC(C)C3C=CC(=O)C31C)OC(=O)C2C (stereo not drawn) [6-OAP, 6-O-angeloylplenolin]
[1]
  proliferation of tumor cells: could inhibit proliferation
[2]; IL-6 10 ng/ml, then 6-OAP 5 to 10 µM for 12 h
  pStat3 in cells upon IL-6: dramatically reduced
[2]; pretreatment 6-OAP for 12 hours, IL-6 10 ng/ml 10 to 30 min
  IL-6-induced pJak2 and pStat3: markedly inhibited IL-6-induced upregulation of pJak2 and pStat3
[3]
  cyclin D1 level: down-regulated
[4]
  pCdc2 (Y15) level: decrease of tyrosine-15-phosphorylated Cdc2
[5]
  cyclin B1 level: increase of cyclin B1
